These results are taken from patent publication US20260085039A1 (priority 2022, published 2026).

For series [1] the following is noted: acid for salt screen; cited from earlier work.
Series [2] can be described thus: Drying studies, form by XRPD after vacuum drying. The series is classed as physicochemical. Particulars: RT, 1 d. As for the experimental part: XRPD patterns were collected with a PANalytical X'Pert PRO MPD or Empyrean diffractometer using an incident beam of Cu radiation produced using an Optix long, fine-focus source. An elliptically graded multilayer mirror was used to focus Cu Kα X-ray radiation through the specimen and onto the detector. Prior to the analysis, a silicon specimen (NIST SRM 640f) was analyzed to verify the observed position of the Si (111) peak is consistent with the NIST-certified position. A specimen of the sample was sandwiched between 3-μm-thick films and analyzed in transmission geometry. A beam-stop, short antiscatter extension, and antiscatter knife edge were used to minimize the background generated by air. Soller slits for the incident and diffracted beams were used to minimize broadening from axial divergence. Diffraction patterns were collected using a scanning position-sensitive detector (X'Celerator) located 240 mm from the specimen and Data Collector software v. 5.5.

A short description of series [3]: Solubility (appearance) and pH in saline. The series is classed as physicochemical.
The nature of series [4]: Observation of solubility samples after 1 day ambient storage (discoloration). Type of series: physicochemical. From the text:
The solubility estimates were utilized to design experiments for the salt screen.

A short description of series [5]: Stability in saline by HPLC psilocin peak area over time. Particulars: aqueous solution such as saline, 36 hours.
Series [6] in a line: Approximate solubility by solvent aliquot addition, visual inspection, ambient temperature. Type of series: physicochemical. As for the experimental part:
Weighed samples were treated with aliquots of designated solvent at ambient temperature. Complete dissolution of the test material was determined by visual inspection. Solubility was estimated based on the total solvent volume used to provide the complete dissolution. If complete dissolution was achieved by only one aliquot addition, the value is reported as “larger than”; if complete dissolution was not achieved, the value is reported as “less than”. The actual solubility may be greater than the value calculated because of the use of solvent aliquots that were too large or due to a slow rate of dissolution.

In brackets after ≈: the same amount, converted by molar mass. Entries after “also recorded” stand apart in the source; their conditions may differ. Where two headings read alike, the source gives them in different places.

As to `O=C(O)C=C(CC(=O)O)C(=O)O` [Aconitic acid], the pKa1 in series [1] is listed as 2.80.

Consider `O=S(=O)(O)c1ccccc1` [Benzesulfonic acid], for which the pKa1 in series [1] is given as 0.17.

In the case of `CN(C)CCc1c[nH]c2cccc(O)c12.O=C(O)c1ccccc1` [Benzoate Form A], in series [2], the “XRPD Result after drying” value is given as “maintains the same form; also recorded: Benzoate Form A”.

For the compound `O=C1O[C@H]([C@H](O)CO)C(O)=C1O` [Erythorbic acid], in series [1], the pKa1 is 2.1.

Regarding `CCCC(=O)O.CN(C)CCc1c[nH]c2cccc(O)c12` [Psilocin butyrate], in series [3] (1.0 mg/mL in saline), the Appearance in solution result is “Visually soluble, clear solution” and the pH is listed as 6.281.

`O=C1CC[C@@H](C(=O)O)N1` [Pyrogluatmic acid]: the pKa1 in series [1] is listed as 3.32.

In the case of `C/C=C/C=C/C(=O)O` [Sorbic acid], the pKa1 in series [1] was 4.75.

For the compound `CN(C)CCc1c[nH]c2cccc(O)c12` [psilocin, 4-hydroxy-N,N-dimethyltryptamine], the “Observation after 1 day ambient storage” value in series [4] (ACN) is “No discoloration”; in series [4] (Acetone) it was “No discoloration”; in series [4] (Dioxane), “No discoloration”; in series [4] (EtOAc), “No discoloration”; in series [4] (EtOH), “No discoloration”; in series [4] (H20), “Discoloration (black suspension)”. In addition, the “Observation after 1 day ambient storage” value is given as “strong discoloration (black)” in series [4] (H20, listed as Psilocin free base); “No discoloration” in series [4] (MeOH); “No discoloration” in series [4] (THF). In addition, the Appearance in solution entry in series [3] (0.1 mg/mL in saline) is on record as “Visually soluble, clear solution”; in series [3] (1.0 mg/mL in saline), “Cloudy solution, not soluble”. Moreover, the pH turned out to be 9.053 in series [3] (0.1 mg/mL in saline) and 9.395 in series [3] (1.0 mg/mL in saline). For the same compound, in series [5], the “decrease in the amount of psilocin present over time” value was no less than 15%. The solubility in series [6] (ACN, ambient temperature, estimated) was 9 mg/mL (≈ 44.1 mM); in series [6] (EtOAc, ambient temperature, estimated) it was 8 mg/mL (≈ 39.2 mM); in series [6] (ethanol, organic solvent or mixture, thermodynamic from solid, EtOH, ambient temperature, estimated, read-out: Solubility), less than 1 mg/mL; in series [6] (methanol, organic solvent or mixture, thermodynamic from solid, MeOH, ambient temperature, estimated, read-out: Solubility) it was less than 1 mg/mL; in series [6] (organic solvent or mixture, thermodynamic from solid, Acetone, ambient temperature, estimated, read-out: Solubility) it was 20 mg/mL (≈ 97.9 mM); in series [6] (organic solvent or mixture, thermodynamic from solid, Dioxane, ambient temperature, estimated, read-out: Solubility) it was 18 mg/mL (≈ 88.1 mM). The solubility in series [6] (other organic solvents (not water, not alcohols), organic solvent or mixture, thermodynamic from solid, read-out: Solubility) was no less than 8 mg/mL; in series [6] (tetrahydrofuran, organic solvent or mixture, thermodynamic from solid, THF, ambient temperature, estimated, read-out: Solubility), 18 mg/mL (≈ 88.1 mM); in series [6] (water and alcohols), “poorly soluble”; in series [6] (water, thermodynamic from solid, H20, ambient temperature, estimated, read-out: Solubility) it was less than 1 mg/mL.

As a reminder, the solubility is how much of the substance goes into solution per volume.
